From patent US20040161786A1, “Gene panel participative in hepatic stellate cell activation” (priority 2001, published 2004) come the findings set out here.

The test system of this experiment is hepatic fibrosis. Nature of the experiment: Dimethylnitrosamine (DMN)-induced hepatic fibrosis, hydroxyproline (Hyp) in the liver. The conditions noted are these: SD male rat, DMN 10 mg/kg i.p. three times a week for four weeks, diet containing 0.5% L-cysteine vs 0.5% casein, 28th day. It is filed as in vivo. On the procedure: Hepatic fibrosis was induced by intraperitoneally administering 10 mg/kg of dimethylnitrosamine (DMN) to a 6-week SD male rat three times a week for four weeks. Then, an experimental diet containing 0.5% of L-cysteine (Cys) as a subject and that containing 0.5% of casein as a control were fed from the initiation date of the DMN administration. On the 28th day from the initiation of the […] administration, the liver was sampled from the subject and the amount of hydroxyproline (Hyp) in the liver was measured as an index of hepatic fibrosis using an amino acid analyzer.

For `N[C@@H](CS)C(=O)O` [cysteine, L-cysteine], the “increase in Hyp in the liver (index of hepatic fibrosis)” value is recorded as “significantly suppressed”.
